# Target: T1, PcE1 (Panonychus citri, UniProt D7NHW8)
# T1 construct: ORF in pFastBac HTA, baculovirus-infected Sf9 cells; supernatant of cell homogenate
# T1 sequence (D7NHW8 19-550): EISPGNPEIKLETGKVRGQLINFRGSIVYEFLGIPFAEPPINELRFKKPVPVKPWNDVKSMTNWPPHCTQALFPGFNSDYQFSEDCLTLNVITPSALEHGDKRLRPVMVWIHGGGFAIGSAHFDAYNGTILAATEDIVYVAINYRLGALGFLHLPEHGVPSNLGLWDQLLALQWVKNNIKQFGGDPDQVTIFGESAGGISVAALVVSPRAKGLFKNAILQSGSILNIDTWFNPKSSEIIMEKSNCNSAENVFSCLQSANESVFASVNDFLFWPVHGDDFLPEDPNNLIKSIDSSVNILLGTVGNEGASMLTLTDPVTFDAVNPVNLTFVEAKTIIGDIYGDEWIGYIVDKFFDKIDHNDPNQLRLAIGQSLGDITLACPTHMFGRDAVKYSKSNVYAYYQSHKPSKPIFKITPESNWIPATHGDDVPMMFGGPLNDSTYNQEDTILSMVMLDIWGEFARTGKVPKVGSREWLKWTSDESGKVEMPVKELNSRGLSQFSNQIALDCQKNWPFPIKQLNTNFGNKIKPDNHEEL
# Assay: spectrophotometric, fast blue coupling, […] nm
# Type: biochemical
# Conditions: Sf9 cell lysate versus GFP control; pH 7.0, 30 °C
compound,measurement,value
CC(=O)Oc1cccc2ccccc12 [α-naphthyl acetate],"spectrophotometric, fast blue coupling, 600 nm",All recombinant proteins showed significant catalytic activities when α-NA was used as the substrate

# From article PMC5000756, “Involvement of Three Esterase Genes from Panonychus citri (McGregor) in Fenpropathrin Resistance” (International Journal of Molecular Sciences, 2016)
